Measurements: paper PMC10150366, “Discovery of an In Vivo Chemical Probe for BCL6 Inhibition by Optimization of Tricyclic Quinolinones” (Journal of Medicinal Chemistry, 2023)
pEC50, pIC50: −log10 of the molar value.

Assays:
kinase panel (468) [1] = biological target: kinase panel (468) (Homo sapiens, UniProt P00519, H396P); test: KINOMEscan scanMAX kinase panel (468); format: binding
kinase panel (468) [2] = test: KINOMEscan scanMAX kinase panel (468); format: binding; details: for Percent Control: 10000 nM
HTR2B = HTR2B (Homo sapiens, UniProt P41595); test: SAFETYscan Calcium Flux HTR2B Agonist; format: cell-based
Sequence of HTR2B (P41595 whole entry): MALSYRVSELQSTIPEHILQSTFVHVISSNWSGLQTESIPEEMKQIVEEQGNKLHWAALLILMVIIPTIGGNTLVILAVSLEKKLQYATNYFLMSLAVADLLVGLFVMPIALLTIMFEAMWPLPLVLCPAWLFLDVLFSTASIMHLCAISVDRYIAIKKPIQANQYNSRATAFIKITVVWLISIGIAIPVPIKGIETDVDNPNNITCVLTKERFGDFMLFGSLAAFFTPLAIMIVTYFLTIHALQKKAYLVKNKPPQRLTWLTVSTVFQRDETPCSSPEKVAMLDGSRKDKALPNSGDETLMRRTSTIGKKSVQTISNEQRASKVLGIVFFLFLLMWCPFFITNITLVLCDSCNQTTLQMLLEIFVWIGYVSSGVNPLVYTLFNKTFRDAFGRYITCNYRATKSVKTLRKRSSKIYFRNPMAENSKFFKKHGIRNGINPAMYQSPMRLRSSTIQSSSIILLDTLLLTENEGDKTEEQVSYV
Source text: (§1) Supplement jm3c00155_si_002.xlsx, sheet "SAFETYScan" | column: RC50 (uM); Max Response

EDNRA = biological target: T1, EDNRA (Homo sapiens, UniProt P25101); test: SAFETYscan Calcium Flux EDNRA Antagonist; format: cell-based
T1 sequence (P25101 21-427): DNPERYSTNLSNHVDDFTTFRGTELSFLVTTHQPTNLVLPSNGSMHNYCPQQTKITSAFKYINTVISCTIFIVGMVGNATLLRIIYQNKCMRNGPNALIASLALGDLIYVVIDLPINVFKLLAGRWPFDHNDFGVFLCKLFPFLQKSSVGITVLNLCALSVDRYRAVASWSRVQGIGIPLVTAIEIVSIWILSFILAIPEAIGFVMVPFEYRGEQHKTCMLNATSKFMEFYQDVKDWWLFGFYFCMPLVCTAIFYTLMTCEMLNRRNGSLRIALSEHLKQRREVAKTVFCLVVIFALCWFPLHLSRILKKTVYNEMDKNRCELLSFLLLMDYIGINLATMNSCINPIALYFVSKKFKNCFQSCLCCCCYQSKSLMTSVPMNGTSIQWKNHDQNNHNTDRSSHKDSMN
Source text: as §1

ADRB1 = ADRB1 (Homo sapiens, UniProt P08588); test: SAFETYscan cAMP ADRB1 Agonist; format: cell-based
Sequence of ADRB1 (P08588 whole entry): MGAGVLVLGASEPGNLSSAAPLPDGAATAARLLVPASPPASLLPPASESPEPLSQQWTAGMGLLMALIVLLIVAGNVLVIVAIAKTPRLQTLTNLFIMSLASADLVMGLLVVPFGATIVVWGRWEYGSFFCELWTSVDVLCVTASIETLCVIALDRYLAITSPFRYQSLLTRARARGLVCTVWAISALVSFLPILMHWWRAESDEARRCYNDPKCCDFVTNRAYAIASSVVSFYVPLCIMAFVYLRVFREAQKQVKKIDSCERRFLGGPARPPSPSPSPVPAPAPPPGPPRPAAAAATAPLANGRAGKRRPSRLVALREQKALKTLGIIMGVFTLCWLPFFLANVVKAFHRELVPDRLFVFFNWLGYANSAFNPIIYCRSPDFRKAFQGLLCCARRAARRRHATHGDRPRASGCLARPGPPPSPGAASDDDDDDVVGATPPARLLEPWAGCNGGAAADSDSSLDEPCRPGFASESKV
Source text: as §1

CNR2 = CNR2 (Homo sapiens, UniProt P34972); test: SAFETYscan cAMP CNR2 Agonist; format: cell-based
Sequence of CNR2 (P34972 whole entry): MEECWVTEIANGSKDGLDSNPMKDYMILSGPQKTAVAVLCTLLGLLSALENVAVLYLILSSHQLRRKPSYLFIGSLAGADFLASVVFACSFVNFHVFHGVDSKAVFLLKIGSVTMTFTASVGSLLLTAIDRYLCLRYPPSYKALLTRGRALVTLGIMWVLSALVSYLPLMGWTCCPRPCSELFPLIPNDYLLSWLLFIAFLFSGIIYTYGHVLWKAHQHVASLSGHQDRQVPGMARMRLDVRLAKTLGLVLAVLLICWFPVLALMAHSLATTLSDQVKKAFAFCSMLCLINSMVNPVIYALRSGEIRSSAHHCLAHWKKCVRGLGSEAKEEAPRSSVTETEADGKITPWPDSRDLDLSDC
Source text: Supplement jm3c00155_si_002.xlsx, sheet "SAFETYScan" | column: RC50 (uM); Hill; Max Response

CHRM2 = biological target: T2, CHRM2 (Homo sapiens, UniProt P08172); test: SAFETYscan cAMP CHRM2 Antagonist; format: cell-based
T2 sequence (P08172 1-466): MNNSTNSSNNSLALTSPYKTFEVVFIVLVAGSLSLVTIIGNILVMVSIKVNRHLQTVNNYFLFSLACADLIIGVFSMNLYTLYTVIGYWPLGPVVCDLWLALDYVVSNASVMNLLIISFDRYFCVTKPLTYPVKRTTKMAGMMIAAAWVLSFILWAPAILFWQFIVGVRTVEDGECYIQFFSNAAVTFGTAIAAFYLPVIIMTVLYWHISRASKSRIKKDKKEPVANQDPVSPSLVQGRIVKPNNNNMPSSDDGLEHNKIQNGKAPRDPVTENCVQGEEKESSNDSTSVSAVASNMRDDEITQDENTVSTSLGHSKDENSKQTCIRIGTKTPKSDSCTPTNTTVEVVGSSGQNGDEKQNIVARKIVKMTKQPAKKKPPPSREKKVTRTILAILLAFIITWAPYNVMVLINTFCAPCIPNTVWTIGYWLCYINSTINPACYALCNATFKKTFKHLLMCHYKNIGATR
Source text: as §1

CNR1 = CNR1 (Homo sapiens, UniProt P21554); test: SAFETYscan cAMP CNR1 Antagonist; format: cell-based
Sequence of CNR1 (P21554 whole entry): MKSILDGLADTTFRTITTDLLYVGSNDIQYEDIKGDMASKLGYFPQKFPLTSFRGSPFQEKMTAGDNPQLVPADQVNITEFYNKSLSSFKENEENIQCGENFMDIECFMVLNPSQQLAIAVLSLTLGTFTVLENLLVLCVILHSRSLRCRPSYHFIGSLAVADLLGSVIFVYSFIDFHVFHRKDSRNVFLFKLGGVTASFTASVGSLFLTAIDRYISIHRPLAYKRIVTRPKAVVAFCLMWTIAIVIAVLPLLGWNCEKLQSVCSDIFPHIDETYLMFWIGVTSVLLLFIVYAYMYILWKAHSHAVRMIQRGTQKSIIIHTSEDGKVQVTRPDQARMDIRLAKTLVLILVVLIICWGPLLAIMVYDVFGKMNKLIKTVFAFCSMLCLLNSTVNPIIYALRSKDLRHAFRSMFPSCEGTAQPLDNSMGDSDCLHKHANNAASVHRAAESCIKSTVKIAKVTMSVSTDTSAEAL
Source text: as §1

HTR3A = biological target: T3, HTR3A (Homo sapiens, UniProt P46098); test: SAFETYscan Ion Channel HTR3A Blocker; format: cell-based
T3 sequence (P46098 24-478): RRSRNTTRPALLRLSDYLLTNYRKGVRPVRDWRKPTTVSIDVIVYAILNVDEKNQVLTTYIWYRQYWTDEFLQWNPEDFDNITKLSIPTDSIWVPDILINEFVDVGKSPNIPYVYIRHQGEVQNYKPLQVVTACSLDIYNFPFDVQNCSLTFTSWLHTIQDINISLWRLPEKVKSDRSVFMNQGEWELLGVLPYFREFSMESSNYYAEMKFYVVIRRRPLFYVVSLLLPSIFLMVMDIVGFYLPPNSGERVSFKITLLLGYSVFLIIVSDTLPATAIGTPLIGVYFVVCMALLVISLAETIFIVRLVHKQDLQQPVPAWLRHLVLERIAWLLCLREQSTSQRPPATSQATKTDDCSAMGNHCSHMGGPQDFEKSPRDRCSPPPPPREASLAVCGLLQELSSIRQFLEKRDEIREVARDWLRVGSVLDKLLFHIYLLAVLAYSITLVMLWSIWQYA
Source text: as §1

VEGFR2 = VEGFR2 (Homo sapiens, UniProt P35968); test: SAFETYscan Kinases Binding VEGFR2 Inhibitor
Sequence of VEGFR2 (P35968 20-1356): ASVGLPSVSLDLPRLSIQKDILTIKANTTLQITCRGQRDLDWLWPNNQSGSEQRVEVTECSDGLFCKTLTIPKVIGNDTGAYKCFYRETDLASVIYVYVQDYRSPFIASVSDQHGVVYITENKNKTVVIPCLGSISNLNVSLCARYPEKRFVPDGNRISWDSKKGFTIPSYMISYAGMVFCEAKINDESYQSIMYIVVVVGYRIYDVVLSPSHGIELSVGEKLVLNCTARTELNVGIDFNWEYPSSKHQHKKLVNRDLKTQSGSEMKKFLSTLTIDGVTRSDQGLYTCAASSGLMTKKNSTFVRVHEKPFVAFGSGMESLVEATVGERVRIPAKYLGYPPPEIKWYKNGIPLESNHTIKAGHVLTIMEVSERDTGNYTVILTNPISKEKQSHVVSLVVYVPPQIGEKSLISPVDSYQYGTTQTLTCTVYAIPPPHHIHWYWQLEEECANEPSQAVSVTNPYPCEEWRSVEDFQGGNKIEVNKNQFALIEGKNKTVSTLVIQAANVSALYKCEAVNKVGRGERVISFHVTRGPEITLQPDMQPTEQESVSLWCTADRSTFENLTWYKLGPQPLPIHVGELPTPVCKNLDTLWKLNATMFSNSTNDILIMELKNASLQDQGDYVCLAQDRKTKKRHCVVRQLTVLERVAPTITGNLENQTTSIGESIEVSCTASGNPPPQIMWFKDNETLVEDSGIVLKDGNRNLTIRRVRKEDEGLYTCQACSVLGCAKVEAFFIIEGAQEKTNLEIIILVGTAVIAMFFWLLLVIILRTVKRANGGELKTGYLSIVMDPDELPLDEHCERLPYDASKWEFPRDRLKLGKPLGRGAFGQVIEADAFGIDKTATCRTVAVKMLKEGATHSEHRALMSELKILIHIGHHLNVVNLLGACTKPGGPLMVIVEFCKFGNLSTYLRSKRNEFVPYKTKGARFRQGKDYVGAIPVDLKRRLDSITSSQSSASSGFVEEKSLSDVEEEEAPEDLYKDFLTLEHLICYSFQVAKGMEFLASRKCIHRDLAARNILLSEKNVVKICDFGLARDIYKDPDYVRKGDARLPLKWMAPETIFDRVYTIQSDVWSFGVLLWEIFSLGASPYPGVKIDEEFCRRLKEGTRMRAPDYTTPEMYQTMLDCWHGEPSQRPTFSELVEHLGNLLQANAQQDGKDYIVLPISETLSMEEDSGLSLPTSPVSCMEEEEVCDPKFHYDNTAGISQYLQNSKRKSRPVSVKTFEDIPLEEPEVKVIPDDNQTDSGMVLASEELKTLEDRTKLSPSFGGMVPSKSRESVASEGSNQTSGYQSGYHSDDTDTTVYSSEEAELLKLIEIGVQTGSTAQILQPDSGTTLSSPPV
Source text: as §1

GR = biological target: T4, GR (Homo sapiens, UniProt P04150); test: SAFETYscan NHR Protein Interaction GR Antagonist; format: cell-based
T4 sequence (P04150 1-777): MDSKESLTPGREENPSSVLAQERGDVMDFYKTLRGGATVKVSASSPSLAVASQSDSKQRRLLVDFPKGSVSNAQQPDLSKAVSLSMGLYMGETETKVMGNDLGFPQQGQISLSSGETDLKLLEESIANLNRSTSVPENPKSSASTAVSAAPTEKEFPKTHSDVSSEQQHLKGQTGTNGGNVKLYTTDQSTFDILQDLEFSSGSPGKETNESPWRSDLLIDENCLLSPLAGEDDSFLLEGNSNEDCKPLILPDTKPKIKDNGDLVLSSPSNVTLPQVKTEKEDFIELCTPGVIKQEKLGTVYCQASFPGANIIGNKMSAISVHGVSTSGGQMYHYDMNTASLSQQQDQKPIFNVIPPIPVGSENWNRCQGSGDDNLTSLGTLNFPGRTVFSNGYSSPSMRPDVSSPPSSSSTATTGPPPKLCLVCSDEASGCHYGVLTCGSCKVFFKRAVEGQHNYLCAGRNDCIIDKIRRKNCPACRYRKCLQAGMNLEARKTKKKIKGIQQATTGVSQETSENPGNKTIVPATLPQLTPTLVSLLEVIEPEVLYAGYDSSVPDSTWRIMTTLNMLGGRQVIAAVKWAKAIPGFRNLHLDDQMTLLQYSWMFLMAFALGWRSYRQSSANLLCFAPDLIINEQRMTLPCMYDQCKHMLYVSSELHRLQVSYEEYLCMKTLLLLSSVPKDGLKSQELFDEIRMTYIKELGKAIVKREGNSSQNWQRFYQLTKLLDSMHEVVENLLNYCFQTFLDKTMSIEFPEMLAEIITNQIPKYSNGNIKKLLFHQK
Source text: as §1

**Q.** Which results are given for `Cn1c(=O)c2c(c3cc(Nc4ccnc(F)c4Cl)ccc31)N[C@@H](C1CC1)C(F)(F)CO2` [compound 17, (S)-10-((3-chloro-2-fluoropyridin-4-yl)amino)-2-cyclopropyl-3,3-difluoro-7-methyl-1,2,3,4-tetrahydro-[1,4]oxazepino[2,3-c]quinolin-6(7H)-one]?
**A.** Percent Control (kinase panel (468) [1]): 84%; kinase panel (468) outcome (kinase panel (468) [2]): selective activity and minimal off-target interactions; Percent Control (kinase panel (468) [2]; EGFR(L747-E749del, A750P)): 93%; Percent Control (kinase panel (468) [2]; EGFR(L747-S752del, P753S)): 67%; Percent Control (kinase panel (468) [2]; EGFR(L747-T751del,Sins)): 100%; Percent Control (kinase panel (468) [2]; FLT3(ITD)): 98%; Percent Control (kinase panel (468) [2]; FLT3(ITD,D835V)): 100%; Percent Control (kinase panel (468) [2]; FLT3(ITD,F691L)): 100%; pEC50 (HTR2B): < 5.00; Emax (HTR2B; HTR2B, Calcium Flux, Agonist, read-out: Max Response): 0%; Emax (EDNRA; read-out: Max Response): 0%; pIC50 (EDNRA; read-out: RC50 (IC50)): < 5.00; Emax (ADRB1; read-out: Max Response): 0%; pEC50 (ADRB1; read-out: RC50 (EC50)): < 5.00; pEC50 (CNR2): 5.86; Hill (CNR2; CNR2, cAMP, Agonist): 0.61; Emax (CNR2; CNR2, cAMP, Agonist, read-out: Max Response): 77.7%; pIC50 (CHRM2): < 5.00; Emax (CHRM2; CHRM2, cAMP, Antagonist, read-out: Max Response): 0%; pIC50 (CNR1): < 5.00; Emax (CNR1; CNR1, cAMP, Antagonist, read-out: Max Response): 0%; pIC50 (HTR3A): < 5.00; Emax (HTR3A; HTR3A, Ion Channel, Blocker, read-out: Max Response): 0%; Emax (VEGFR2; read-out: Max Response): 0%; pIC50 (VEGFR2; read-out: RC50 (IC50)): < 5.00; Emax (GR; read-out: Max Response): 12.3%; pIC50 (GR; read-out: RC50 (IC50)): < 5.00
